Values quoted from earlier work in patent publication US20190161439A1, “MARINE SESSILE ORGANISM-REPELLING COMPOSITION” (BASSERU CHEMICAL CO., LTD., priority 2015, published 2019).

Tested on: Barnacle
Conditions: reported values

| concentration corresponding to the 50% adhesion inhibition rate to Barnacle (EC50) [µg/mL] | Compound |
| --- | --- |
| 0.03 | [C-]#[N+]C(C)(C)CCCCCCCCC=C [AF-035] |
| 0.0084 | CC(=O)O[C@H]1CC[C@](C)(C#N)CC1 [AF-034] |
